{"source": "patent US11958876B2", "about": "“Carbacyclic phosphatidic acid compound” (OTSUKA CHEMICAL CO., LTD., priority 2019, dated 2024)", "test": "Stability test of 2ccPA crystals with added 2ccPA-L or 2ccPA-P (thermo-hygrostat, HPLC purity)", "assay_type": "physicochemical", "settings": "40° C., humidity 60%", "method": "2ccPA-L of Example 2 or 2ccPA-P of Comparative Example 2 was added to 2ccPA, and a stability test was performed. • Control: 2ccPA crystal • Test substances: crystals obtained by adding 2ccPA-L or 2ccPA-P at each concentration to 2ccPA, followed by crystallization with methanol and acetone. (2) Execution Conditions\nIn the stability test, a thermo-hygrostat (Yamato Scientific Co., Ltd., IW223) was used. The stability test was performed while maintaining a set temperature of 40° C. and a set humidity of 60%.\nThe sample purity was confirmed in such a manner that about 10 mg of each sample was weighed every week and diluted with 2 mL of acetonitrile/water (volume ratio: 1/1), and the diluted solution was analyzed by high-performance liquid chromatography (Shimadzu LC20AD).\nThe results are shown in Table 1 (Example 2) and Table 2 (Comparative Example 2). Tables 1 and 2 focus only on 2ccPA, and show the residual rate thereof with the initial content of 2ccPA as 100 mass %.", "note": "Counter-ions that a name gives are not always drawn.", "data": [{"smiles": "CCCCCCCCCCCCCCCC(=O)OCC1COP(=O)(O)C1", "note": "(stereo not shown) [Example 2ccPA-P]", "values": [{"measurement": "Effect on purity of 2ccPA on storage (in words)", "setting": "0.15 mass % 2ccPA-P added to 2ccPA", "value": "the purity was reduced"}]}, {"smiles": "CCCCC/C=C\\C/C=C\\CCCCCCCC(=O)OCC1COP(=O)(O)C1", "note": "(stereo not shown) [Example 2ccPA-L]", "values": [{"measurement": "Effect on purity of 2ccPA on storage (in words)", "setting": "2ccPA-L coexisting with 2ccPA, storage 1 or 2 weeks", "value": "hardly reduced"}]}, {"smiles": "CCCCCCCC/C=C\\CCCCCCCC(=O)OCC1COP(=O)(O)C1", "note": "(stereo not shown) [Example 2ccPA, sodium salt of 9-octadecenoic acid (9Z)-(2-hydroxy-2-oxo-2λ^5-1,2-oxaphosphoran-4-yl)methyl ester]", "values": [{"measurement": "Stability test (1 week): residual rate of 2ccPA", "setting": "control 2ccPA crystal, 0 mass % additive, 1 week, initial 2ccPA content as 100 mass %", "value": 100, "unit": "%"}, {"measurement": "Stability test (2 weeks): residual rate of 2ccPA", "setting": "control 2ccPA crystal, 0 mass % additive, 2 weeks, initial 2ccPA content as 100 mass %", "value": 94.4, "unit": "%"}]}]}
